Tests used:
Format in all cases: cell-based, human
iPS cells [1] = test: H1152 duration and aggregate formation, Experiment 2: cardiomyocyte differentiation; set-up: Average Cardiomyocyte Yield: unit not given here; conditions: for Average # cTnT Cells/Liter (in millions) / Average % Troponin T+ / Average Cardiomyocyte Yield / Average Cell Count per flask (in millions) / Average ratio iPS to CM: day 14, T25
Method: (§1) The purpose of this Example was to see the effect of 1 day or 2 day treatment with the compound on Cardiomyocyte development. Initial testing with H1152 included the compound in the media: 1 μM on day one with the TeSR media and 0.5 μM on day 2 with the compound in the aggregate transition media. After adopting a new method which included the H1152 compound for 1 day at 1 μM only, there appeared to be a loss of efficiency with the initial cell survival, resulting in this study to determine if extended H1152 would increase cell survival without a negative impact on […]. Cardiomyocyte differentiation conditions and experimental parameters were summarized in Tables 11-12 and 13-14 for Experiments 1 and 2, respectively. Critical reagents and materials were obtained as described in the previous example.

IPS 6.1 cells = test: Effect of different concentrations of H1152 on cell survival; conditions: one day dose, FIG. 28
Method: FIG. 28: Effect of different concentrations of H1152 on cell survival with one day dose of H1152 on IPS 6.1 cells.
Effect of different concentrations of H1152 was also tested on cell survival with one day dose of H1152 on IPS 6.1 cells (FIG. 28).

iPS cells [2] = test: H1152 duration and aggregate formation, Experiment 1: cardiomyocyte differentiation; set-up: Average Cardiomyocyte Yield: unit not given here; conditions: for Average # cTnT Cells/Liter (in millions) / Average % Troponin T+ / Average Cardiomyocyte Yield / Average Cell Count per flask (in millions) / Average ratio iPS to CM: day 14, T25
Method: as §1

[3] = 3e5 cells/ml seeding, H1152 1 μM 24 hour exposure
[4] = 3e5 cells/ml seeding, H1152 1 μM 48 hour exposure
[5] = 5e5 cells/ml seeding, H1152 1 μM 24 hour exposure
[6] = 5e5 cells/ml seeding, H1152 1 μM 48 hour exposure
[7] = 10e5 cells/ml seeding, H1152 1 μM 24 hour exposure
[8] = 10e5 cells/ml seeding, H1152 1 μM 48 hour exposure
[9] = 15e5 cells/ml seeding, H1152 1 μM 24 hour exposure
[10] = 15e5 cells/ml seeding, H1152 1 μM 48 hour exposure
[11] = 7e5 cells/ml seeding, H1152 1 μM 24 hour exposure
[12] = 7e5 cells/ml seeding, H1152 1 μM 48 hour exposure

## Cc1cncc2cccc(S(=O)(=O)N3CCCNC[C@@H]3C)c12 [H1152]
iPS cells [1]; [3]
  Average # cTnT Cells/Liter (in millions): 11.06 ± 9.07 millions
  Average % Troponin T+: 12.71 ± 1.72%
  Average Cardiomyocyte Yield: 66383 ± 54471
  Average Cell Count per flask (in millions): 0.57 ± 0.54 millions
  Average ratio iPS to CM: 33 ± 20
iPS cells [1]; [4]
  Average # cTnT Cells/Liter (in millions): 34.67 ± 15.81 millions
  Average % Troponin T+: 7.99 ± 2.24%
  Average Cardiomyocyte Yield: 208066 ± 94874
  Average Cell Count per flask (in millions): 2.52 ± 0.51 millions
  Average ratio iPS to CM: 8 ± 4
iPS cells [1]; [5]
  Average # cTnT Cells/Liter (in millions): 8.84 ± 6.01 millions
  Average % Troponin T+: 9.98 ± 2.40%
  Average Cardiomyocyte Yield: 53055 ± 36109
  Average Cell Count per flask (in millions): 0.52 ± 0.35 millions
  Average ratio iPS to CM: 67 ± 49
iPS cells [1]; [6]
  Average # cTnT Cells/Liter (in millions): 38.40 ± 23.14 millions
  Average % Troponin T+: 5.20 ± 3.33%
  Average Cardiomyocyte Yield: 230454 ± 138874
  Average Cell Count per flask (in millions): 4.56 ± 0.48 millions
  Average ratio iPS to CM: 14 ± 7
iPS cells [1]; [7]
  Average # cTnT Cells/Liter (in millions): 14.18 ± 7.34 millions
  Average % Troponin T+: 5.42 ± 1.08%
  Average Cardiomyocyte Yield: 85129 ± 44092
  Average Cell Count per flask (in millions): 1.54 ± 063 millions
  Average ratio iPS to CM: 72 ± 42
iPS cells [1]; [8]
  Average # cTnT Cells/Liter (in millions): 16.03 ± 13.63 millions
  Average % Troponin T+: 1.40 ± 1.45%
  Average Cardiomyocyte Yield: 96206 ± 81824
  Average Cell Count per flask (in millions): 7.84 ± 1.14 millions
  Average ratio iPS to CM: 77 ± 44
iPS cells [1]; [9]
  Average # cTnT Cells/Liter (in millions): 28.54 ± 10.83 millions
  Average % Troponin T+: 6.48 ± 2.42%
  Average Cardiomyocyte Yield: 171264 ± 65034
  Average Cell Count per flask (in millions): 2.63 ± 0.14 millions
  Average ratio iPS to CM: 48 ± 17
iPS cells [1]; [10]
  Average # cTnT Cells/Liter (in millions): 28.13 ± 30.17 millions
  Average % Troponin T+: 2.36 ± 2.03%
  Average Cardiomyocyte Yield: 168815 ± 181030
  Average Cell Count per flask (in millions): 6.16 ± 1.31 millions
  Average ratio iPS to CM: 97 ± 85
iPS cells [1]; Experiment 2, cultures initially seeded with 3e5 and 5e5 cells/mL, 14 days
  Effect of increasing H1152 exposure duration to 48 hours on cTnT yield: increased cTnT yield in the cultures initially seeded with 3e5 and 5e5 cells/mL
IPS 6.1 cells
  Optimal concentration for aggregate formation: 1 µM
iPS cells [2]; [3]
  Average # cTnT Cells/Liter (in millions): 2.91 ± 1.27 millions
  Average % Troponin T+: 6.83 ± 0.26%
  Average Cardiomyocyte Yield: 17445 ± 7677
  Average Cell Count per flask (in millions): 0.25 ± 0.11 millions
  Average ratio iPS to CM: 99 ± 45
iPS cells [2]; [4]
  Average # cTnT Cells/Liter (in millions): 9.92 ± 0.25 millions
  Average % Troponin T+: 4.40 ± 1.00%
  Average Cardiomyocyte Yield: 59575 ± 1514
  Average Cell Count per flask (in millions): 1.39 ± 0.28 millions
  Average ratio iPS to CM: 25 ± 1
iPS cells [2]; [5]
  Average # cTnT Cells/Liter (in millions): 3.02 ± 1.66 millions
  Average % Troponin T+: 6.26 ± 3.40%
  Average Cardiomyocyte Yield: 18123 ± 10004
  Average Cell Count per flask (in millions): 0.46 ± 0.48 millions
  Average ratio iPS to CM: 180 ± 119
iPS cells [2]; [6]
  Average # cTnT Cells/Liter (in millions): 19.52 ± 8.01 millions
  Average % Troponin T+: 3.37 ± 1.12%
  Average Cardiomyocyte Yield: 117137 ± 48094
  Average Cell Count per flask (in millions): 3.41 ± 0.47 millions
  Average ratio iPS to CM: 24 ± 11
iPS cells [2]; [11]
  Average # cTnT Cells/Liter (in millions): 6.54 ± 0.91 millions
  Average % Troponin T+: 5.41 ± 1.58%
  Average Cardiomyocyte Yield: 39272 ± 5494
  Average Cell Count per flask (in millions): 0.77 ± 0.29 millions
  Average ratio iPS to CM: 90 ± 12
iPS cells [2]; [12]
  Average # cTnT Cells/Liter (in millions): 11.71 ± 6.74 millions
  Average % Troponin T+: 2.23 ± 0.28%
  Average Cardiomyocyte Yield: 70299 ± 40479
  Average Cell Count per flask (in millions): 3.19 ± 1.81 millions
  Average ratio iPS to CM: 72 ± 58
iPS cells [2]; [7]
  Average # cTnT Cells/Liter (in millions): 8.53 ± 3.67 millions
  Average % Troponin T+: 3.29 ± 2.73%
  Average Cardiomyocyte Yield: 51174 ± 22025
  Average Cell Count per flask (in millions): 1.95 ± 0.91 millions
  Average ratio iPS to CM: 116 ± 66
iPS cells [2]; [8]
  Average # cTnT Cells/Liter (in millions): 37.33 ± 11.90 millions
  Average % Troponin T+: 4.70 ± 1.08%
  Average Cardiomyocyte Yield: 224015 ± 71410
  Average Cell Count per flask (in millions): 4.69 ± 0.64 millions
  Average ratio iPS to CM: 24 ± 9
iPS cells [2]; [9]
  Average # cTnT Cells/Liter (in millions): 13.35 ± 5.17 millions
  Average % Troponin T+: 2.05 ± 0.89%
  Average Cardiomyocyte Yield: 80131 ± 31034
  Average Cell Count per flask (in millions): 4.01 ± 0.46 millions
  Average ratio iPS to CM: 105 ± 43
iPS cells [2]; [10]
  Average # cTnT Cells/Liter (in millions): 49.87 ± 21.23 millions
  Average % Troponin T+: 4.84 ± 1.61%
  Average Cardiomyocyte Yield: 299246 ± 127411
  Average Cell Count per flask (in millions): 6.16 ± 1.31 millions
  Average ratio iPS to CM: 28 ± 10
iPS cells [2]; Experiment 1, each cell density condition, 14 days
  Effect of increasing H1152 exposure duration to 48 hours on cTnT yield: increased cTnT yield in each cell density condition
iPS cells [2]; two day treatment at 1 μM, each of the experiments
  Cell survival: significant increase in the cell survival

Source: US10604739B2, “Cardiomyocyte production” (Cellular Dynamics International, Inc., priority 2009, dated 2020)
